Literature values, collected in US20250041383A1, “MODIFIED CAVEOLIN-1 PEPTIDES FOR THE TREATMENT OF POST-ACUTE COVID-19” (priority 2021, published 2025).
Ends that are not written are not given here.

Tested on: lung
Settings: treatment with the CSP 20-mer; literature

DGIWKASFTTFTVTKYWFYR (not fully specified) [CSP 20-mer, the full-length CSD of caveolin-1, amino acids 82-101]
collagen deposition: reduced
expression of profibrogenic signaling molecules: down-regulation
lung aSMA: reduced
lung epithelial apoptosis: reduced
